From patent publication US20220281848A1, “PYRAZOLE-SUBSTITUTED PYRROLIDINONES AS HERBICIDES” (FMC Corporation, priority 2019, published 2022)

System: plants
Experiment: Test D pre-emergence, other plants of Tables D1 and D3
Assay type: in vivo
Settings: for damage to plant (100=total damage to plant; 0=no damage to plant), ABUTH / damage to plant (100=total damage to plant; 0=no damage to plant), BIDPI / damage to plant (100=total damage to plant; 0=no damage to plant), BRAPL / damage to plant (100=total damage to plant; 0=no damage to plant), CYPES / damage to plant (100=total damage to plant; 0=no damage to plant), DIGSA / damage to plant (100=total damage to plant; 0=no damage to plant), ECHCG / damage to plant (100=total damage to plant; 0=no damage to plant), ELEIN / damage to plant (100=total damage to plant; 0=no damage to plant), EPHHL / damage to plant (100=total damage to plant; 0=no damage to plant), GLXMA / damage to plant (100=total damage to plant; 0=no damage to plant), IPOHE / damage to plant (100=total damage to plant; 0=no damage to plant), ORYSA / damage to plant (100=total damage to plant; 0=no damage to plant), PANMI / damage to plant (100=total damage to plant; 0=no damage to plant), SETFA / damage to plant (100=total damage to plant; 0=no damage to plant), SIDSP / damage to plant (100=total damage to plant; 0=no damage to plant), SORVU: preemergent, 20 DAA
Experimental: A formulation containing 50 g/L of the test chemical was prepared by dissolving the active ingredient in a mixture of organic solvents and emulsifier, details of which are provided in the table. This formulation was then mixed with a small, variable amount of acetone to aid dissolution, before addition of a 0.2% v/v aqueous solution of an adjuvant, as the aqueous diluent, to form an aqueous spray solution which contains a predetermined concentration of the active ingredient.
This aqueous spray solution was then sprayed onto plants including maize and wheat that had been seed treated with a herbicide safener, after one day's cultivation (for pre-emergence) or after about 12 days' cultivation (for post-emergence). The plants were grown from seeds sown in standard soil, placed in a glasshouse under controlled conditions (at 24/18° C. or 20/16° C., day/night; 16 h light; 65% humidity). After spray application the plants were then grown in a glasshouse under the same conditions and watered twice daily. After 15 d for post-emergence and 20 DAA for pre-emergence the test was evaluated (100=total damage to plant; 0=no damage to plant).

[1] = pre-emergence, rate 15, 20 DAA, 100=total damage, 0=no damage

CCn1nc([C@H]2CN(C)C(=O)[C@@H]2C(=O)Nc2cccc(F)c2F)c2ccc(F)cc21 [Compound 4]
damage to plant (100=total damage to plant; 0=no damage to plant), ABUTH (rate 15): 0
damage to plant (100=total damage to plant; 0=no damage to plant), ABUTH (rate 30): 0
damage to plant (100=total damage to plant; 0=no damage to plant), ABUTH (rate 60): 0
damage to plant (100=total damage to plant; 0=no damage to plant), ABUTH (rate 130): 0
damage to plant (100=total damage to plant; 0=no damage to plant), ABUTH (rate 250): 0
damage to plant (100=total damage to plant; 0=no damage to plant), ABUTH (rate 500): 0
damage to plant (100=total damage to plant; 0=no damage to plant), BIDPI (rate 15): 0
damage to plant (100=total damage to plant; 0=no damage to plant), BIDPI (rate 30): 0
damage to plant (100=total damage to plant; 0=no damage to plant), BIDPI (rate 60): 0
damage to plant (100=total damage to plant; 0=no damage to plant), BIDPI (rate 130): 0
damage to plant (100=total damage to plant; 0=no damage to plant), BIDPI (rate 250): 0
damage to plant (100=total damage to plant; 0=no damage to plant), BIDPI (rate 500): 0
damage to plant (100=total damage to plant; 0=no damage to plant), BRAPL (rate 15): 40
damage to plant (100=total damage to plant; 0=no damage to plant), BRAPL (rate 30): 40
damage to plant (100=total damage to plant; 0=no damage to plant), BRAPL (rate 60): 60
damage to plant (100=total damage to plant; 0=no damage to plant), BRAPL (rate 130): 80
damage to plant (100=total damage to plant; 0=no damage to plant), BRAPL (rate 250): 90
damage to plant (100=total damage to plant; 0=no damage to plant), BRAPL (rate 500): 90
damage to plant (100=total damage to plant; 0=no damage to plant), CYPES (rate 15): 0
damage to plant (100=total damage to plant; 0=no damage to plant), CYPES (rate 30): 0
damage to plant (100=total damage to plant; 0=no damage to plant), CYPES (rate 60): 0
damage to plant (100=total damage to plant; 0=no damage to plant), CYPES (rate 130): 0
damage to plant (100=total damage to plant; 0=no damage to plant), CYPES (rate 250): 0
damage to plant (100=total damage to plant; 0=no damage to plant), CYPES (rate 500): 0
damage to plant (100=total damage to plant; 0=no damage to plant), DIGSA (rate 15): 0
damage to plant (100=total damage to plant; 0=no damage to plant), DIGSA (rate 30): 60
damage to plant (100=total damage to plant; 0=no damage to plant), DIGSA (rate 60): 80
damage to plant (100=total damage to plant; 0=no damage to plant), DIGSA (rate 130): 90
damage to plant (100=total damage to plant; 0=no damage to plant), DIGSA (rate 250): 90
damage to plant (100=total damage to plant; 0=no damage to plant), DIGSA (rate 500): 90
damage to plant (100=total damage to plant; 0=no damage to plant), ECHCG (rate 15): 0
damage to plant (100=total damage to plant; 0=no damage to plant), ECHCG (rate 30): 40
damage to plant (100=total damage to plant; 0=no damage to plant), ECHCG (rate 60): 80
damage to plant (100=total damage to plant; 0=no damage to plant), ECHCG (rate 130): 90
damage to plant (100=total damage to plant; 0=no damage to plant), ECHCG (rate 250): 90
damage to plant (100=total damage to plant; 0=no damage to plant), ECHCG (rate 500): 90
damage to plant (100=total damage to plant; 0=no damage to plant), ELEIN (rate 15): 0
damage to plant (100=total damage to plant; 0=no damage to plant), ELEIN (rate 30): 0
damage to plant (100=total damage to plant; 0=no damage to plant), ELEIN (rate 250): 10
damage to plant (100=total damage to plant; 0=no damage to plant), ELEIN (rate 500): 10
damage to plant (100=total damage to plant; 0=no damage to plant), EPHHL (rate 15): 0
damage to plant (100=total damage to plant; 0=no damage to plant), EPHHL (rate 30): 0
damage to plant (100=total damage to plant; 0=no damage to plant), EPHHL (rate 60): 0
damage to plant (100=total damage to plant; 0=no damage to plant), EPHHL (rate 130): 0
damage to plant (100=total damage to plant; 0=no damage to plant), EPHHL (rate 250): 0
damage to plant (100=total damage to plant; 0=no damage to plant), EPHHL (rate 500): 10
damage to plant (100=total damage to plant; 0=no damage to plant), GLXMA (rate 15): 0
damage to plant (100=total damage to plant; 0=no damage to plant), GLXMA (rate 30): 0
damage to plant (100=total damage to plant; 0=no damage to plant), GLXMA (rate 60): 0
damage to plant (100=total damage to plant; 0=no damage to plant), GLXMA (rate 130): 0
damage to plant (100=total damage to plant; 0=no damage to plant), GLXMA (rate 250): 0
damage to plant (100=total damage to plant; 0=no damage to plant), GLXMA (rate 500): 0
damage to plant (100=total damage to plant; 0=no damage to plant), IPOHE (rate 15): 0
damage to plant (100=total damage to plant; 0=no damage to plant), IPOHE (rate 30): 0
damage to plant (100=total damage to plant; 0=no damage to plant), IPOHE (rate 60): 0
damage to plant (100=total damage to plant; 0=no damage to plant), IPOHE (rate 130): 0
damage to plant (100=total damage to plant; 0=no damage to plant), IPOHE (rate 250): 0
damage to plant (100=total damage to plant; 0=no damage to plant), IPOHE (rate 500): 10
damage to plant (100=total damage to plant; 0=no damage to plant), ORYSA (rate 15): 0
damage to plant (100=total damage to plant; 0=no damage to plant), ORYSA (rate 30): 0
damage to plant (100=total damage to plant; 0=no damage to plant), ORYSA (rate 60): 0
damage to plant (100=total damage to plant; 0=no damage to plant), ORYSA (rate 130): 0
damage to plant (100=total damage to plant; 0=no damage to plant), ORYSA (rate 250): 0
damage to plant (100=total damage to plant; 0=no damage to plant), ORYSA (rate 500): 0
damage to plant (100=total damage to plant; 0=no damage to plant), PANMI (rate 15): 0
damage to plant (100=total damage to plant; 0=no damage to plant), PANMI (rate 30): 0
damage to plant (100=total damage to plant; 0=no damage to plant), PANMI (rate 60): 0
damage to plant (100=total damage to plant; 0=no damage to plant), PANMI (rate 130): 0
damage to plant (100=total damage to plant; 0=no damage to plant), PANMI (rate 250): 20
damage to plant (100=total damage to plant; 0=no damage to plant), PANMI (rate 500): 40
damage to plant (100=total damage to plant; 0=no damage to plant), SETFA (rate 15): 10
damage to plant (100=total damage to plant; 0=no damage to plant), SETFA (rate 30): 70
damage to plant (100=total damage to plant; 0=no damage to plant), SETFA (rate 60): 70
damage to plant (100=total damage to plant; 0=no damage to plant), SETFA (rate 130): 80
damage to plant (100=total damage to plant; 0=no damage to plant), SETFA (rate 250): 90
damage to plant (100=total damage to plant; 0=no damage to plant), SETFA (rate 500): 90
damage to plant (100=total damage to plant; 0=no damage to plant), SIDSP (rate 15): 0
damage to plant (100=total damage to plant; 0=no damage to plant), SIDSP (rate 30): 0
damage to plant (100=total damage to plant; 0=no damage to plant), SIDSP (rate 60): 0
damage to plant (100=total damage to plant; 0=no damage to plant), SIDSP (rate 500): 0
damage to plant (100=total damage to plant; 0=no damage to plant), SORVU (rate 15): 0
damage to plant (100=total damage to plant; 0=no damage to plant), SORVU (rate 30): 0
damage to plant (100=total damage to plant; 0=no damage to plant), SORVU (rate 60): 10
damage to plant (100=total damage to plant; 0=no damage to plant), SORVU (rate 130): 10
damage to plant (100=total damage to plant; 0=no damage to plant), SORVU (rate 250): 40
damage to plant (100=total damage to plant; 0=no damage to plant), SORVU (rate 500): 50
damage to plant, ALOMY [1]: 0
damage to plant, AVEFA [1]: 0
